Reference: patent US5340815A, “2-substituted-4,6-di-tertiary-butyl-5-hydroxy-1,3-pyrimidines useful as antiinflammatory agents” (Warner-Lambert Company, priority 1993, dated 1994)

Assays:
Cyclooxygenase = assay: ARBC whole cell cyclooxygenase assay (PGF2α formation, RBL-1 cells); assay type: cell-based, rat; details: 10 μM
Description: (§1) ARBL/ARBC Whole Cell 5-Lipoxygenase and Cyclooxygenase Assays The rat basophilic leukemia cell line (RBL-1) was obtained from the American Type Culture Collection (Rockville, Md.). Radioimmunoassay (RIA) kits of LTB4 and PGF2α were obtained from Amersham (Arlington Heights, Ill.) and Seragen (Boston, Mass.), respectively. All tissue culture media were obtained from GIBCO (Grand Island, N.Y.). RBL-1 cells are grown in suspension culture in Eagle's minimum essential medium supplemented with 12% fetal bovine serum at 37° C. in an incubator supplied with air-5% carbon dioxide. Cells are harvested by centrifugation. They are washed with cold phosphate buffered saline pH 7.4 (PBS; NaCl, 7.1 g; Na2 HPO4, 1.15 g; KH2 PO4, 0.2 g; and KCl, 0.2 g/l). Cells are finally suspended in PBS containing 1.0 mM calcium at a density of 2×10^6 cells/mi. Cells are incubated with and without test agent (in DMSO) (1% DMSO is without effect on arachidonic acid metabolism) for ten minutes at room temperature. Calcium ionophore A23187 (5 μM) is added and cells are incubated for 7 minutes at 37° C. The reaction is stopped by chilling the tubes on ice for 10 minutes. Cells are separated by centrifugation and the supernatant is stored at -20° Aliquots (100 μL) are analyzed for LTB4 and PGF2α using radioimmunoassay kits as provided by the supplier. […]

[1] = test system: Carrageenan-Induced Rat Foot Paw Edema; assay: Carrageenan-induced rat foot paw edema-2 (CFE-2) assay; assay type: in vivo; details: 30 mg/kg, methanesulfonate salt, dosed one hour before carrageenan; edema at five hours
Description: Carrageenan-Induced Rat Foot Paw Edema-2 (CFE-2) Assay: Protocol
Carrageenan solution (1% w/v) is prepared by dissolving 100 mg carrageenan (Marine Colloidal Div., Springfield, N.J.) in 10 mL of sterile saline (0.9%) solution (Travenol). The solution is vortexed for 30 to 45 minutes. Animals are dosed with compound one hour before carrageenan challenge. Foot paw edema is induced by injecting 0.10 ml of the 1% carrageenan subcutaneously into the plantar portion of the right hind paw of each rat under light anesthesia. Initial foot paw volume is measured immediately following carrageenan challenge using mercury plethysmography (Buxco Electronics). Edema is measured five hours after carrageenan. The difference between the five-hour and the initial paw volume is expressed as delta edema. The delta edema for each test group of animals is used to calculate the percent inhibition of edema achieved by-the compound at the test dose compared with the vehicle control group. The ID40 (the dose at which swelling is inhibited by 40%) is calculated by probit analysis for the dose at which 40 percent inhibition occurs.

5-Lipoxygenase = assay: ARBL whole cell 5-lipoxygenase assay (LTB4 formation, RBL-1 cells); assay type: cell-based, rat; details: 10 μM
Description: as §1

For `CC(C)(C)c1nc(/C=C/c2cccnc2)nc(C(C)(C)C)c1O` [Example 1, [E]-4,6-Bis(1,1-dimethylethyl)-2-[[2-(3-pyridinyl)]-ethenyl]-5-pyrimidinol], the “ARBC, % inhibition (PGF2α formation)” value (Cyclooxygenase) was 85%, the “% Inhibition of Edema” value [1] was 45% and the “ARBL, % inhibition (LTB4 formation)” value (5-Lipoxygenase) was 100%.
`Cc1cc(C=Cc2nc(C(C)(C)C)c(O)c(C(C)(C)C)n2)sn1` [Example 3] was tested, and the “ARBC, % inhibition (PGF2α formation)” value (Cyclooxygenase) was 60% and the “ARBL, inhibition class (LTB4 formation)” value (5-Lipoxygenase) was “N* (<40% inhibition at 10 μM)”.
